The values below come from patent publication US9944618B2, “Inhibiting neurotransmitter reuptake” (Mayo Foundation for Medical Education and Research, priority 2013, dated 2018).

Where two headings read alike, the source gives them in different places.

For orientation: Ki means a dissociation constant, usually derived from enzyme kinetics or from competition with a known ligand. Broadly, the pKa is the negative logarithm of the acid dissociation constant. By IC50 is commonly meant the concentration that inhibits the measured activity by half.

The target of series [1] is human norepinephrine transporter (Homo sapiens (Human), UniProt P23975). Description: Human NET (norepinephrine transporter) uptake assay. Format: cell-based. The following applies: read-out: hNET Ki. Here is the method:
This protocol was designed to measure inhibition of uptake by the human norepinephrine transporter. […] The Assay Buffer (AB) was 1×HBSS and 0.02 M HEPES.
(§1) The HEK293F cells were transfected with the human norepinephrine transporter and frozen in 1 mL aliquots at about 1E+07 cells/mL. On the day of the experiment, the cells were removed from −80° C. or liquid nitrogen and thawed in a room temperature water bath. The cells were dilute to about 1-2E+06 with Freestyle medium. A 1 mL sample (1:2 dilution) was prepared, and the cells were counted. The cells were spun at 1100 rpm for 5 minutes, and the medium was aspirated off. The cells were resuspend in medium at 1.5E+06 cells/mL for about 60,000 cells per well. 40 μL of cells were dispensed per well in the Biocoat plates. The plates were spun at 1100 rpm for 1 minute to improve homogeneity of the cell layer and were incubated at 37° C. for a minimum of 3 hours.
(§2) 12 μL of test compound (10 mM) in DMSO was added to the wells, and nomifensine was used as a control. […] The neurotransmitter transporter dye was prepared in AB prior to use.
(§3) Due to the proprietary nature of the dye formulation, all dye concentrations were expressed as a percentage of the vendor-recommended dye reconstitution. Thus, the above calculations were valid when both [dye] and Km were expressed in the same units (%). Compounds were tested in triplicate (n=3).

Series [2] deals with human dopamine transporter (Homo sapiens (Human), UniProt Q01959). In words: Human DAT (dopamine transporter) uptake assay. The format is cell-based. The following applies: read-out: hDAT Ki. The procedure:
This protocol was designed to measure inhibition of uptake by the human dopamine transporter. […] The Assay Buffer (AB) was 1×HBSS and 0.02 M HEPES.
as §1, with “dopamine” for “norepinephrine”
as §2
Due to the proprietary nature of the dye formulation, all dye concentrations were expressed as a percentage of the vendor-recommended dye reconstitution. Thus, the above calculations were valid when both [dye] and K1 were expressed in the same units (%). Compounds were tested in triplicate (n=3).

Series [3] addresses human serotonin transporter (Homo sapiens (Human), UniProt P31645). Description: Human SERT (serotonin transporter) uptake assay. The format is cell-based. Particulars: read-out: hSERT Ki. Here is the method:
This protocol was designed to measure inhibition of uptake by the human serotonin transporter. […] The Assay Buffer (AB) was […] and 0.02 M HEPES.
as §1, with “serotonin” for “norepinephrine”
12 μL of test compound (10 mM) in DMSO was added to the wells, and nomifensine was used as a control. Fluoxetine (final assay concentration of 10 μM) was used for background signal. The neurotransmitter transporter dye was prepared in AB prior to use.
as §3

The nature of series [4]: pKa of basic centres (Table 1). Format: physicochemical.
Series [5] concerns the target CYP2D6 (Homo sapiens (Human), UniProt P10635). In words: Cytochrome P450 inhibition assay, recombinant CYP2D6 (MAMC substrate). Format: in vitro ADME. The following applies: recombinant enzyme.
[6] abbreviates: first base, e.g., an aliphatic primary, secondary, or tertiary amine, read-out: pKa (Base 1).
Setting [7] is: second base in the same molecule (if present), read-out: pKa (Base 2).

Chain of human serotonin transporter (P31645 whole entry): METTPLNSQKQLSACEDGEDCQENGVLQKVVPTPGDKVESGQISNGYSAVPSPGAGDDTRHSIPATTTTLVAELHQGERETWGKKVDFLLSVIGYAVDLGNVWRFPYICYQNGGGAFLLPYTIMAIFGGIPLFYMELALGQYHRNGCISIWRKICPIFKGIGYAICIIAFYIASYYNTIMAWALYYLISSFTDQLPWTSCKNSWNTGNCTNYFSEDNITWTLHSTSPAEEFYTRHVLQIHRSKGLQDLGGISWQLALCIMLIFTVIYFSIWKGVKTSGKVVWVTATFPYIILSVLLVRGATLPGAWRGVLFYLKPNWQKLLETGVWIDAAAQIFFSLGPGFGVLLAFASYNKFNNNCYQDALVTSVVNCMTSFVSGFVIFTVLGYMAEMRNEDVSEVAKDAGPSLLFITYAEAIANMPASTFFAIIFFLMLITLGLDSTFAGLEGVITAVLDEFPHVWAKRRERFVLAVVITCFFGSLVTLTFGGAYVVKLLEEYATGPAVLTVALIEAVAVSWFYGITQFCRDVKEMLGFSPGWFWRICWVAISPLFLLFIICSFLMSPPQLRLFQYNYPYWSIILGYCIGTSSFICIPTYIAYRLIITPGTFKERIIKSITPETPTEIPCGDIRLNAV
Chain of human norepinephrine transporter (P23975 whole entry): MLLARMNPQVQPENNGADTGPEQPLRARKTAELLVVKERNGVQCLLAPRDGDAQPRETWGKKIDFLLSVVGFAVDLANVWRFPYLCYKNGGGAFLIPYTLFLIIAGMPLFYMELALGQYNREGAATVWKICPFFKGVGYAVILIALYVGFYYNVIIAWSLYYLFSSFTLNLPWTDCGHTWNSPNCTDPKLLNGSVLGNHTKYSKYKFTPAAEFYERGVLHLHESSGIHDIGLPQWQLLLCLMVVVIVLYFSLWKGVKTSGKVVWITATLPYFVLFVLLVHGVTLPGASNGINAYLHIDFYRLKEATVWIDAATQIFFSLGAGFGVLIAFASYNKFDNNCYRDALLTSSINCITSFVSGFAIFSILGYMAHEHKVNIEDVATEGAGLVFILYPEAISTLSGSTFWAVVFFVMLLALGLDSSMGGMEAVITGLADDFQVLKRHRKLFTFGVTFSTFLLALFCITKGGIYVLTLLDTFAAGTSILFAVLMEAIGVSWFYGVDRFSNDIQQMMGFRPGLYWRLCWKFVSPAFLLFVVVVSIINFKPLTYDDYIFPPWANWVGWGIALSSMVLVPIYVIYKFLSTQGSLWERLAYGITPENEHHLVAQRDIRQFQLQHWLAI
Chain of CYP2D6 (P10635 whole entry): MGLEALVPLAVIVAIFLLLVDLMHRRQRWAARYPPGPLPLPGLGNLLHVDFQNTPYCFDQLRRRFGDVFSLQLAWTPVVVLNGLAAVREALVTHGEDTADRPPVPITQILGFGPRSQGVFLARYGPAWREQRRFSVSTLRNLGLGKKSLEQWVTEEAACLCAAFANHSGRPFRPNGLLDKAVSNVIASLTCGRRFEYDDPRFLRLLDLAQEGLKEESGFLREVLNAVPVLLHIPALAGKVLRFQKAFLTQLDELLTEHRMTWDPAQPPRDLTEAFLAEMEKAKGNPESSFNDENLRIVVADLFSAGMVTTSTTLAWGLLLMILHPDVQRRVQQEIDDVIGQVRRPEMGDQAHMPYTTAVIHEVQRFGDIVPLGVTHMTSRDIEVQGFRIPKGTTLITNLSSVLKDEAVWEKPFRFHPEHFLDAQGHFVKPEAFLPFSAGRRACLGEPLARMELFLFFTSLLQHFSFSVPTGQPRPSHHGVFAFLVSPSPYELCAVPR
Chain of human dopamine transporter (Q01959 whole entry): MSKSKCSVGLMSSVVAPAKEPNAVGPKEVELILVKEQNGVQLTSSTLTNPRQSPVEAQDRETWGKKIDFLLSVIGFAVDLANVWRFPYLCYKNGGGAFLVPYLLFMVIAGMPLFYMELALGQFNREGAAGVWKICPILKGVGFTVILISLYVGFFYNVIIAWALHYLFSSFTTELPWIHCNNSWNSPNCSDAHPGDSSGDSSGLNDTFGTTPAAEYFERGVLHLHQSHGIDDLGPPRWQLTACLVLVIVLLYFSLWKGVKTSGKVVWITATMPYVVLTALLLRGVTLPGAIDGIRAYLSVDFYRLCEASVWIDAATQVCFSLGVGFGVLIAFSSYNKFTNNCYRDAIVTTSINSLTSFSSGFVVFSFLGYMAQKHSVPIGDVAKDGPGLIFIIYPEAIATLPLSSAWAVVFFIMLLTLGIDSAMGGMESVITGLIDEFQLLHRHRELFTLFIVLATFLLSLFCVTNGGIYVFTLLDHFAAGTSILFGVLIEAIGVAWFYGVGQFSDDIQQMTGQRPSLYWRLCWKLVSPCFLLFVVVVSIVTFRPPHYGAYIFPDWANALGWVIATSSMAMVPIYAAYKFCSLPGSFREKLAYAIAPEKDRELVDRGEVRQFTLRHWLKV

On to `CNC[C@H](c1ccc(OC)c(C)c1)[C@H](O)c1ccccc1` (racemic) [Compound 54], for which the inhibitory constant (Ki) in series [1] turned out to be 4.5 nM; in series [2] it was 971 nM; in series [3], 2.4 nM. Moreover, in series [4] (setting [6]), the pKa is 10.

On to `CNCC(Cc1cccnc1)c1ccc(Cl)c(Cl)c1` (racemic) [Compound 80], for which the values for the Ki in series [2] and in series [3] were 52.2 nM and 34.7 nM, respectively. The values for the pKa in series [4] (setting [6]) and in series [4] (setting [7]) were 9.6 and 5.2, respectively.

Regarding `CNC[C@H](c1ccc(Cl)cc1)[C@H](O)c1ccccc1` (racemic) [Compound 148], the Ki in series [1] was found to be 8.5 nM; in series [2], 114 nM; in series [3] it was 191 nM. In addition, the pKa in series [4] (setting [6]) is 9.7.

As to `CNC[C@H](c1ccc(Br)cc1)[C@H](O)c1ccccc1` (racemic) [Compound 149], the values for the Ki in series [1], in series [2] and in series [3] were 7.7 nM, 129 nM and 119 nM, respectively. Moreover, the pKa in series [4] (setting [6]) amounted to 9.7.

`CNC[C@@H](c1ccc(Br)c(Cl)c1)[C@H](O)c1ccccc1` (racemic) [Compound 150]: the values for the Ki in series [1], in series [2] and in series [3] were 6.3 nM, 31.8 nM and 51.5 nM, respectively. For the same molecule, the pKa in series [4] (setting [6]) amounted to 9.4.

Regarding `CNC[C@H](c1ccc2ccccc2c1)[C@H](O)c1cc(F)cc(F)c1` (single isomer, unassigned) [Compound 37], the Ki in series [1] was found to be 3 nM; in series [2], 63.6 nM; in series [3], 54.6 nM. The pKa in series [4] (setting [6]) is 9.6.

Turning to `O[C@@H](c1ccccc1)[C@@H](CNCC(F)(F)F)c1ccc2ccccc2c1` (single isomer, unassigned) [Compound 130], the results for the inhibition constant Ki in series [1], in series [2] and in series [3] were 4570 nM, 87.3 nM and 3370 nM, respectively. The IC50 in series [5] is 3700 nM. Further, the pKa in series [4] (setting [6]) came out at 4.6.

Turning to `CNC[C@H](c1ccc2ccccc2c1)[C@@H](O)c1ccncc1Cl` [Compound 7], the Ki in series [1] was 1.4 nM; in series [2], 6.6 nM; in series [3], 3.6 nM. The pKa worked out at 9.5 in series [4] (setting [6]) and 3 in series [4] (setting [7]).

Turning to `CNC[C@H](c1ccc2ccccc2c1)[C@H](OCC(=O)NC1CCC1)c1ccccc1` [Compound 8], the Ki in series [1] turned out to be 1.4 nM; in series [2], 10.8 nM; in series [3] it was 1.3 nM. In series [4] (setting [6]), the pKa was 9.6.

Turning to `CNCC(CCc1ccccc1)[C@@H](O)c1ccccc1` (stereo partly shown) [Compound 27], the figures for the Ki in series [1], in series [2] and in series [3] were 2.3 nM, 96.7 nM and 252 nM, respectively. Besides, in series [4] (first base, e.g., an aliphatic primary, secondary, or tertiary amine), the “pKa (Base 1)” value came to 10.1.

Consider `CNC[C@H](c1ccc2ccccc2c1)[C@H](OCc1cccn(C)c1=O)c1ccccc1` [Compound 31], for which the values for the Ki in series [1], in series [2] and in series [3] were 2.4 nM, 24.6 nM and 1.9 nM, respectively. Besides, the pKa in series [4] (setting [6]) amounted to 9.6.

Take `CNCC(c1ccc2ccccc2c1)C(OC)c1ccccc1` (stereo not shown) [Compound 38]: the figures for the Ki in series [1], in series [2] and in series [3] were 3.1 nM, 49.9 nM and 16.9 nM, respectively. Besides, the pKa in series [4] (setting [6]) is 9.7.

As for `CNC[C@H](c1ccc2ccccc2c1)[C@H](OCC(=O)Nc1ccccc1)c1ccccc1` [Compound 45], the inhibition constant Ki is 3.3 nM in series [1], 8.9 nM in series [2] and 2.4 nM in series [3]. For the same molecule, the pKa in series [4] (setting [6]) came to 9.7.

Regarding `CNC[C@H](c1ccc2ccccc2c1)[C@H](OC)c1ccccc1` [Compound 46], the Ki came to 3.4 nM in series [1], 37.5 nM in series [2] and 24.2 nM in series [3]. In addition, in series [4] (setting [6]), the pKa is 9.7.

On to `CNC[C@H](c1ccc2ccccc2c1)[C@H](O)c1cccs1` [Compound 47], for which the Ki in series [2] came to 15 nM; in series [3] it was 2.2 nM. Further, the pKa in series [4] (setting [6]) turned out to be 9.7.

As for `CNC[C@H](c1ccc2ccccc2c1)[C@H](OCC(=O)NCCOC)c1ccccc1` [Compound 51], the figures for the inhibition constant Ki in series [1], in series [2] and in series [3] were 3.9 nM, 141 nM and 2.6 nM, respectively. Besides, in series [4] (setting [6]), the pKa stood at 9.6.

For `CNC[C@@H](Cc1cccnc1)c1ccc(Cl)c(Cl)c1` [Compound 59], the inhibitory constant (Ki) in series [2] amounted to 112 nM; in series [3], 35.6 nM. Further, the pKa in series [4] (setting [6]) turned out to be 9.6; in series [4] (setting [7]) it was 5.2.

`CNC[C@H](c1ccc2ccccc2c1)[C@H](OCC(=O)NCC(F)(F)F)c1ccccc1` [Compound 68]: the results for the Ki in series [1], in series [2] and in series [3] were 8.4 nM, 55.5 nM and 29.7 nM, respectively. The pKa in series [4] (setting [6]) came out at 9.6.

With `CNC[C@H](c1ccc2ccccc2c1)[C@H](OCC(=O)N(C)OC)c1ccccc1` [Compound 71], the inhibitory constant (Ki) in series [1] was found to be 10 nM; in series [2], 17.9 nM; in series [3], 4.4 nM. Also, in series [4] (setting [6]), the pKa came to 9.6.

Regarding `CNC[C@H](c1ccc2ccccc2c1)[C@H](OCc1cccc(=O)n1C)c1ccccc1` [Compound 79], the figures for the Ki in series [1], in series [2] and in series [3] were 14.4 nM, 73.3 nM and 6.4 nM, respectively. Further, the pKa in series [4] (setting [6]) is 9.7.

Take `CNC[C@H](c1ccc2ccccc2c1)[C@H](O[C@H](C)C(=O)N1CCCC1)c1ccccc1` [Compound 81]: the Ki worked out at 14.7 nM in series [1], 1360 nM in series [2] and 13 nM in series [3]. For the same molecule, in series [4] (setting [6]), the pKa was 9.6.

Take `CNC[C@H](c1ccc2ccccc2c1)[C@H](OCc1nc(C(=O)OC)co1)c1ccccc1` [Compound 84]: the Ki in series [1] was 16.2 nM; in series [2], 39.2 nM; in series [3], 3.3 nM. Besides, the pKa in series [4] (setting [6]) is 9.6.

For the molecule `NC[C@@H](c1ccc2ccccc2c1)[C@@H](O)c1ccccc1` [Compound 88], the Ki in series [2] turned out to be 80.4 nM. In addition, in series [4] (setting [6]), the pKa came to 8.7.

Consider `NCC(c1ccc2ccccc2c1)[C@@H](O)c1ccccc1` (stereo partly shown) [Compound 91], for which, in series [2], the inhibition constant Ki came out at 249 nM. Moreover, the pKa in series [4] (setting [6]) worked out at 8.7.

In the case of `CNC[C@H](Cc1cccnc1)c1ccc(Cl)c(Cl)c1` [Compound 115], the inhibitory constant (Ki) in series [2] is 127 nM; in series [3], 642 nM. Besides, the pKa in series [4] (setting [6]) was determined as 9.6; in series [4] (setting [7]), 5.2.

On to `CN1CCO[C@@H](c2ccccc2)[C@@H](c2ccc3ccccc3c2)C1` [Compound 123], for which the inhibitory constant (Ki) in series [1] was found to be 290 nM; in series [2], 379 nM; in series [3] it was 12 nM. The half-maximal inhibitory concentration (IC50) in series [5] is 6600 nM. The pKa in series [4] (setting [6]) was determined as 8.2.

Consider `CN1CCO[C@@H](c2ccccc2)[C@H](c2ccc3ccccc3c2)C1` [Compound 124], for which the inhibition constant Ki turned out to be 338 nM in series [1], 15.3 nM in series [2] and 167 nM in series [3]. The IC50 in series [5] was determined as 3000 nM. Besides, in series [4] (setting [6]), the pKa was found to be 8.2.

On to `NCC(Cc1ccccc1F)c1ccc2ccccc2c1` (stereo not shown) [Compound 137], for which the values for the Ki in series [2] and in series [3] were 77.7 nM and 31.8 nM, respectively. Further, the pKa in series [4] (setting [6]) was 9.3.

Turning to `CNC[C@@H](c1ccc2ccccc2c1)[C@@H](O)c1cccs1` [Compound 144], the inhibitory constant (Ki) was 113 nM in series [2] and 10 nM in series [3]. Moreover, the pKa in series [4] (setting [6]) came out at 9.7.

`CNCC(CCc1ccccc1)[C@@H](O)c1ccccc1` (stereo partly shown) [Compound 147]: the inhibitory constant (Ki) in series [1] came out at 45.7 nM; in series [2] it was 121 nM; in series [3], 800 nM. In addition, the pKa in series [4] (setting [6]) came out at 10.1.

On to `CNCCC(Oc1ccccc1OC)c1ccccc1` (stereo not shown) [compound 177], for which the Ki in series [3] was 54.4 nM.
